Experimental data reported in patent US20180327367A1, “MACROCYCLIC BROAD SPECTRUM ANTIBIOTICS” (priority 2015, published 2018).
In brackets after ≈: the same amount, converted by molar mass. Like-named read-outs stand apart in the source and are kept apart here.

Assays:
[1] = molecular target: T1, SpsB (Staphylococcus aureus signal peptidase) (Staphylococcus aureus, UniProt P0A070); experiment: cell-based; format: biochemical; conditions: SpsB IC50, whole-cell S. aureus (USA300 background, overexpressing SpsB) as SpsB source; fluorogenic peptide substrate, kinetic read 30 min
T1 construct: This assay uses a suspension of Staphylococcus aureus cells as a source of SpsB instead of recombinant SpsB protein; endogenous in cells; host or cells: S. aureus, USA300 background, overexpressing SpsB (whole-cell suspension from frozen pellets)
T1 sequence (P0A070 whole entry): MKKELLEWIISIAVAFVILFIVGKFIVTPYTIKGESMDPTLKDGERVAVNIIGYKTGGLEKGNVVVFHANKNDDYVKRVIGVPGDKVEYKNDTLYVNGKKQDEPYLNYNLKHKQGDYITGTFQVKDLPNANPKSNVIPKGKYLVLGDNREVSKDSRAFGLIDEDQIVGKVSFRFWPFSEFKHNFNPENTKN
Method in brief: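 Whole S. aureus cells (USA300, overexpressing SpsB) in PBS with MgCl2, CaCl2 and 0.1% Tween-80 served as enzyme source, mixed with 20 μM stock of (Dabcyl)βAla-KPAKAAE(Edans) substrate before use. Fluorescence (ex 340/em 490 nm) read kinetically over 30 min. IC50 from reaction rate versus 11-point inhibitor concentration.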

[2] = system: Escherichia coli ATCC 25922; experiment: Minimum inhibitory concentration, broth micro-dilution (CLSI), E. coli; format: cell-based; conditions: Escherichia coli, ATCC25922, 22 h, 35° C., 22 hours
[3] = system: Methicillin Resistant Staphylococcus aureus strain USA 300, NRS384; experiment: Minimum inhibitory concentration, broth micro-dilution (CLSI), S. aureus; format: cell-based; conditions: Staphylococcus aureus, MRSA / NRS 384 / USA300, 22 h, 35° C., 22 hours
Method in brief: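 Colonies grown 20 hours at 35° C were suspended in cation-adjusted Mueller Hinton Broth with 0.002% Tween-80. Cells were then added to 2-fold compound dilutions starting at 4 or 0.5 μg/mL, at OD600 0.0005.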

[4] = system: Escherichia coli MC4100 harboring the IMP4213 (E. coli IMP); experiment: microbe, parasite or virus in culture; format: cell-based; conditions: Escherichia coli, 22 h, read-out: MIC (μg/mL) E. coli IMP, E. coli MC4100 IMP4213, increased outer-membrane permeability; 35° C., 22 hours
Method in brief: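 Broth micro-dilution per CLSI in cation-adjusted Mueller Hinton Broth with 0.002% Tween-80; E. coli MC4100 carries IMP4213, raising outer-membrane permeability. Compounds tested as 2-fold serial dilutions (10 concentrations) from 4 μg/mL (protocol 2) or 0.5 μg/mL (protocol 3); inoculum OD600 0.0005, 35° C for 22 hours.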

[5] = E. coli ATCC 25922, read-out: MIC (μg/mL) E. coli
[6] = MRSA USA 300 NRS384, read-out: MIC (μg/mL) S. aureus
[7] = read-out: MIC (μg/mL) E. coli, E. coli ATCC 25922
[8] = read-out: MIC (μg/mL) S. aureus, MRSA USA 300 NRS384

Row | Compound | IC50 [1] [nM] | MIC [2, 5] [µg/mL] | MIC [3, 6] [µg/mL] | MIC [4] [µg/mL] | MIC [2, 7] [µg/mL] | MIC [3, 8] [µg/mL]
1 | CCCCCCSc1ccc(C(=O)N[C@@H](CCN)C(=O)N(C)[C@@H]2C(=O)N[C@@H](C)C(=O)N[C@H](C(=O)NCC#N)Cc3ccc(OCCN)c(c3)-c3cc2ccc3OCCN)c(C)c1 [Compound 391] | 0.99 | 0.5 (≈ 0.573 µM) | 0.047 (≈ 0.0539 µM) | 0.016 (≈ 0.0183 µM) | – | –
2 | CCCCCCCCCCN[C@@H](CO)C(=O)N(C)[C@@H]1C(=O)N[C@@H](C)C(=O)N[C@H](C(=O)NCC#N)Cc2ccc(OCCN)c(c2)-c2cc1ccc2OCCN [Compound 400] | 5 | – | – | 2 (≈ 2.61 µM) | > 64 | 0.25 (≈ 0.327 µM)
3 | CCCCCCCCCCCNC(=O)N[C@@H](CCN)C(=O)N(C)[C@@H]1C(=O)N[C@@H](C)C(=O)N[C@H](C(=O)NCC#N)Cc2ccc(OCCN)c(c2)-c2cc1ccc2OCCN [Compound 403] | < 0.5 | 1.3 (≈ 1.56 µM) | 0.029 (≈ 0.0347 µM) | 0.023 (≈ 0.0275 µM) | – | –
4 | CCCCCCc1ccc(NC(=O)N[C@@H](CCN)C(=O)N(C)[C@@H]2C(=O)N[C@@H](C)C(=O)N[C@H](C(=O)NCC#N)Cc3ccc(OCCN)c(c3)-c3cc2ccc3OCCN)c(C)c1 [Compound 404] | 0.88 | – | – | 0.047 (≈ 0.055 µM) | 2 (≈ 2.34 µM) | 0.063 (≈ 0.0737 µM)
5 | CCCCCCCCCCC(C)(C)C(=O)N[C@@H](CCN)C(=O)N(C)[C@@H]1C(=O)N[C@@H](C)C(=O)N[C@H](C(=O)NCC#N)Cc2ccc(OCCN)c(c2)-c2cc1ccc2OCCN [Compound 406] | 1.2 | 2 (≈ 2.36 µM) | 0.063 (≈ 0.0743 µM) | 0.031 (≈ 0.0366 µM) | – | –
6 | CCCCCCCCc1ccc(C(=O)N[C@@H](CCN)C(=O)N(C)[C@@H]2C(=O)N[C@@H](C)C(=O)N[C@H](C(=O)NCC#N)Cc3ccc(OCCN)c(c3)-c3cc2ccc3OCCN)c(OCC(N)=O)c1 [Compound 407] | 1.1 | 4 (≈ 4.31 µM) | 0.047 (≈ 0.0507 µM) | 0.047 (≈ 0.0507 µM) | – | –
7 | CCCCCCCC(F)(F)c1ccc(C(=O)N[C@@H](CCN)C(=O)N(C)[C@@H]2C(=O)N[C@@H](C)C(=O)N[C@H](C(=O)NCC#N)Cc3ccc(OCCN)c(c3)-c3cc2ccc3OCCN)c(Cl)c1 [Compound 412] | 0.6 | – | – | 0.012 (≈ 0.013 µM) | 0.13 (≈ 0.141 µM) | 0.031 (≈ 0.0335 µM)
8 | CCCCCCCC(=O)c1ccc(C(=O)N[C@@H](CCN)C(=O)N(C)[C@@H]2C(=O)N[C@@H](C)C(=O)N[C@H](C(=O)NCC#N)Cc3ccc(OCCN)c(c3)-c3cc2ccc3OCCN)c(Cl)c1 [Compound 413] | 0.88 | 0.25 (≈ 0.277 µM) | 0.031 (≈ 0.0343 µM) | 0.0078 (≈ 0.00864 µM) | – | –
9 | CCCCCCCCCCNCCC(=O)N[C@@H](CCCCN)C(=O)N(C)[C@@H]1C(=O)N[C@@H](C)C(=O)N[C@H](C(=O)NC(C)C#N)Cc2ccc(OCCN)c(c2)-c2cc1ccc2OCCN (some centres unmarked) [Compound 415] | 14 | – | – | 4 (≈ 4.49 µM) | 64 (≈ 71.8 µM) | > 4
10 | CCCCCCCCCCCC(=O)N[C@@H](CO)C(=O)N(C)[C@@H]1C(=O)N[C@@H](C)C(=O)N[C@H](C(=O)N[C@H](C#N)C2CC2)Cc2ccc(OCCN)c(c2)-c2cc1ccc2OCCN [Compound 420] | 8.4 | 24 (≈ 28.3 µM) | 4 (≈ 4.72 µM) | 1 (≈ 1.18 µM) | – | –
11 | CCCCCCCCc1cccc(C(=O)N[C@@H](CCCCN)C(=O)N(C)[C@@H]2C(=O)N[C@@H](C)C(=O)N[C@H](C(=O)NCC#N)Cc3ccc(OCCN)c(c3)-c3cc2ccc3OCCN)c1 [Compound 421] | 1.6 | 2 (≈ 2.27 µM) | 0.063 (≈ 0.0714 µM) | 0.063 (≈ 0.0714 µM) | – | –
12 | CCCCCCCCc1ccc(C)c(C(=O)N[C@@H](CCCCN)C(=O)N(C)[C@@H]2C(=O)N[C@@H](C)C(=O)N[C@H](C(=O)NCC#N)Cc3ccc(OCCN)c(c3)-c3cc2ccc3OCCN)c1 [Compound 422] | 1.1 | 1.5 (≈ 1.67 µM) | 0.063 (≈ 0.0703 µM) | 0.031 (≈ 0.0346 µM) | – | –
13 | C[C@@H]1NC(=O)[C@@H](N(C)C(=O)[C@H](CCN)NC(=O)c2ccc(C#Cc3ccccc3)cc2F)c2ccc(OCCN)c(c2)-c2cc(ccc2OCCN)C[C@@H](C(=O)NCC#N)NC1=O [Compound 423] | 0.85 | – | – | 0.014 (≈ 0.0163 µM) | 0.44 (≈ 0.512 µM) | 0.063 (≈ 0.0733 µM)
14 | C[C@@H]1NC(=O)[C@@H](N(C)C(=O)[C@H](CCN)NC(=O)c2ccc(C#Cc3ccccc3)cc2Cl)c2ccc(OCCN)c(c2)-c2cc(ccc2OCCN)C[C@@H](C(=O)NCC#N)NC1=O [Compound 424] | 0.75 | – | – | 0.016 (≈ 0.0183 µM) | 0.56 (≈ 0.639 µM) | 0.063 (≈ 0.0719 µM)
